Reference: PubChem BioAssay AID338 (DTP/NCI, 2004)
Where “and” joins values, the source holds several entries; their conditions need not be identical. Equal entries are not always repeated. Toxic doses and inconclusive results are not listed. The calls were made as follows: active = survival T/C of 150% or more; inactive = T/C below 125% in these data.

Tested on: BDF1 mice, P388 leukemia (terephthalanilide-resistant), survival T/C
Assay: NCI In Vivo Anticancer Drug Screen. Data for tumor model P388 Leukemia resistant to A Terephthalanilide; NSC 38280 (intraperitoneal) in B6D2F1 (BDF1) mice
Conditions: endpoint: median survival time, higher = longer survival
Procedure: The antitumor activity of compounds was measured in mice bearing transplantable tumors. Survival or tumor size were measured and the results are expressed as the measurement made in the treated group (T) divided by the measurement made in the vehicle treated control group (C). The tumor model used in this assay is P388 Leukemia resistant to A Terephthalanilide; NSC 38280 (intraperitoneal) in B6D2F1 (BDF1) mice

[1] = dose: 15.0 mg/kg/injection, schedule: Q01DX010 (ip), vehicle: saline
[2] = dose: 30.0 mg/kg/injection, schedule: Q01DX010 (ip), vehicle: saline
[3] = dose: 60.0 mg/kg/injection, schedule: Q01DX010 (ip), vehicle: saline
[4] = dose: 25.0 mg/kg/injection, schedule: Q01DX010 (ip), vehicle: saline
[5] = dose: 200.0 mg/kg/injection, schedule: Q01DX010 (ip), vehicle: saline
[6] = dose: 3.13 mg/kg/injection, schedule: Q01DX010 (ip), vehicle: saline
[7] = dose: 6.25 mg/kg/injection, schedule: Q01DX010 (ip), vehicle: saline
[8] = dose: 12.5 mg/kg/injection, schedule: Q01DX010 (ip), vehicle: saline
[9] = dose: 250.0 mg/kg/injection, schedule: Q01DX010 (ip), vehicle: saline
[10] = dose: 20.0 mg/kg/injection, schedule: Q01DX010 (ip), vehicle: saline
[11] = dose: 40.0 mg/kg/injection, schedule: Q01DX010 (ip), vehicle: saline
[12] = dose: 5.0 mg/kg/injection, schedule: Q01DX010 (ip), vehicle: saline
[13] = dose: 2.5 mg/kg/injection, schedule: Q01DX010 (ip), vehicle: saline
[14] = dose: 10.0 mg/kg/injection, schedule: Q01DX010 (ip), vehicle: saline
[15] = dose: 62.5 mg/kg/injection, schedule: Q01DX010 (ip), vehicle: saline
[16] = dose: 125.0 mg/kg/injection, schedule: Q01DX010 (ip), vehicle: saline

Measured: T/C

C[C@]12C=CC(=O)C=C1CC[C@@H]1[C@@H]2C(=O)C[C@@]2(C)[C@H]1CC[C@]2(O)C(=O)CO
inactive: dose: 0.12 mg/kg/injection, schedule: Q01DX Z (sc), vehicle: steriod suspending solution 100 % of control | dose: 12.5 mg/kg/injection, schedule: Q01DX Z (sc), vehicle: steriod suspending solution 104 % of control | dose: 25.0 mg/kg/injection, schedule: Q01DX010 (sc), vehicle: steriod suspending solution 105 % of control | dose: 25.0 mg/kg/injection, schedule: Q01DX Z (sc), vehicle: steriod suspending solution 100 % of control and 109 % of control | dose: 50.0 mg/kg/injection, schedule: Q01DX Z (sc), vehicle: steriod suspending solution 100 % of control | dose: 100.0 mg/kg/injection, schedule: Q01DX010 (sc), vehicle: steriod suspending solution 88 % of control | dose: 200.0 mg/kg/injection, schedule: Q01DX010 (sc), vehicle: steriod suspending solution 88 % of control

Clc1ncnc2nc[nH]c12
inactive: dose: 7.5 mg/kg/injection, schedule: Q01DX010 (ip), vehicle: saline 87 % of control | [1] 87 % of control and 93 % of control | [2] 87 % of control and 106 % of control | [3] 93 % of control

CSc1ncnc2nc[nH]c12
inactive: [4] 104 % of control and 105 % of control | dose: 50.0 mg/kg/injection, schedule: Q01DX010 (ip), vehicle: saline 100 % of control and 104 % of control | dose: 100.0 mg/kg/injection, schedule: Q01DX010 (ip), vehicle: saline 100 % of control | [5] 105 % of control and 109 % of control

C1CN1c1nc(N2CC2)nc(N2CC2)n1
inactive: dose: 0.13 mg/kg/injection, schedule: Q01DX010 (ip), vehicle: saline 94 % of control and 100 % of control | dose: 0.25 mg/kg/injection, schedule: Q01DX010 (ip), vehicle: saline 105 % of control and 116 % of control | dose: 0.5 mg/kg/injection, schedule: Q01DX010 (ip), vehicle: saline 116 % of control | dose: 1.0 mg/kg/injection, schedule: Q01DX010 (ip), vehicle: saline 111 % of control

N#CCSc1ncnc2nc[nH]c12
inactive: [1] 100 % of control | [2] 100 % of control | [3] 105 % of control and 109 % of control | dose: 120.0 mg/kg/injection, schedule: Q01DX010 (ip), vehicle: saline 100 % of control

CCCNc1ncnc2[nH]ncc12
inactive: [6] 95 % of control and 105 % of control | [7] 100 % of control | [8] 90 % of control and 94 % of control | [4] 110 % of control | [9] 111 % of control

O=C1C(NC(=O)C2CCCCC2)=C(N2CC2)C(=O)C(NC(=O)C2CCCCC2)=C1N1CC1
inactive: [5] 90 % of control

OCC1OC(n2cnc3c(=S)nc[nH]c32)C(O)C1O (stereo not given)
inactive: [10] 90 % of control and 111 % of control | [11] 100 % of control and 105 % of control | dose: 80.0 mg/kg/injection, schedule: Q01DX010 (ip), vehicle: saline 116 % of control | dose: 160.0 mg/kg/injection, schedule: Q01DX010 (ip), vehicle: saline 110 % of control

O=C(Nc1cccc(C(=O)Nc2ccc(C3=NCCN3)cc2)c1)c1ccc(C2=NCCN2)cc1
inactive: dose: 54.0 mg/kg/injection, schedule: Q01DX010 (ip), vehicle: saline 117 % of control

CN(N=O)C(N)=O
inactive: [12] 113 % of control | [10] 118 % of control

O=C(O)CCCc1ccc(N(CCCl)CCCl)cc1
inactive: [6] 100 % of control and 105 % of control | [7] 110 % of control and 116 % of control | [8] 105 % of control and 120 % of control

S=P(N1CCOCC1)(N1CC1)N1CC1
inactive: [13] 105 % of control and 111 % of control | [12] 94 % of control and 105 % of control

Oc1cc(CN(CCCl)CCCl)c(O)cc1CN(CCCl)CCCl
inactive: dose: 0.63 mg/kg/injection, schedule: Q01DX010 (ip), vehicle: saline 116 % of control | dose: 1.25 mg/kg/injection, schedule: Q01DX010 (ip), vehicle: saline 100 % of control and 116 % of control | [13] 100 % of control and 116 % of control | [12] 100 % of control and 116 % of control | [14] 110 % of control

O=c1cn[nH]c(=O)[nH]1
inactive: [15] 105 % of control | [16] 111 % of control | [9] 90 % of control and 105 % of control | dose: 500.0 mg/kg/injection, schedule: Q01DX010 (ip), vehicle: saline 88 % of control

CCCCn1cnc2c(=S)nc[nH]c21
inactive: dose: 16.0 mg/kg/injection, schedule: Q01DX010 (ip), vehicle: saline 86 % of control | dose: 32.0 mg/kg/injection, schedule: Q01DX010 (ip), vehicle: saline 90 % of control

CCn1cnc2c(=S)nc[nH]c21
inactive: dose: 15.6 mg/kg/injection, schedule: Q01DX010 (ip), vehicle: saline 100 % of control and 105 % of control | dose: 31.3 mg/kg/injection, schedule: Q01DX010 (ip), vehicle: saline 105 % of control and 110 % of control | [15] 94 % of control and 100 % of control | [16] 110 % of control

C[C@@H]1C[C@@H]([C@H](O)CC2CC(=O)NC(=O)C2)C(=O)[C@@H](C)C1
inactive: [12] 93 % of control and 100 % of control | [14] 100 % of control | [10] 100 % of control | [11] 112 % of control
